The structures appear in SMILES notation. ≈ marks a conversion by molar mass, not a printed value.

In the first test the test system is M. tuberculosis H37Rv. Put plainly: MIC vs. M. tuberculosis H37Rv, microplate Alamar Blue assay (MABA). The conditions noted are these: Table 1a, 11,12-carbamate derivatives; read-out: Anti-TB Activity MIC. The format is cell-based. A general note: Alamar Blue is a resazurin reagent that responds to reducing activity.
Take `CC[C@H]1OC(=O)[C@H](C)C(=O)[C@H](C)[C@@H](O[C@@H]2O[C@H](C)C[C@H](N(C)C)[C@H]2O)[C@](C)(OC)C[C@@H](C)C(=O)[C@H](C)[C@H]2N(CCCCn3ccnc3)C(=O)O[C@]12C` [RU61205]: the MIC was 112 µM (≈ 82.3 µg/mL). On the same count and under the same terms, the same measure for `CC[C@H]1OC(=O)[C@H](C)C(=O)[C@H](C)[C@@H](O[C@@H]2O[C@H](C)C[C@H](N(C)C)[C@H]2O)[C@](C)(OC)C[C@@H](C)C(=O)[C@H](C)[C@H]2N(CCCCn3cnc(-c4cccnc4)c3)C(=O)O[C@]12C` [Telithromycin, reference compound]: 48 µM (≈ 39 µg/mL).

Still in this test, the particulars now being: Table 3, parallel-synthesis carbazate library products.
In turn, `CC[C@H]1OC(=O)[C@H](C)[C@@H](O[C@H]2CC(C)(OC)[C@@H](O)[C@H](C)O2)[C@H](C)[C@@H](O[C@@H]2O[C@H](C)C[C@H](N(C)C)[C@H]2O)[C@](C)(OC)C[C@@H](C)C(=O)[C@H](C)[C@H]2N(NCc3sc(C)nc3C)C(=O)O[C@]12C` (stereo partly shown) [F5′] came in with an MIC of more than 19 µM. On the same count and under the same terms, the value for `CC[C@H]1OC(=O)[C@H](C)[C@@H](O[C@H]2CC(C)(OC)[C@@H](O)[C@H](C)O2)[C@H](C)[C@@H](O[C@@H]2O[C@H](C)C[C@H](N(C)C)[C@H]2O)[C@](C)(OC)C[C@@H](C)C(=O)[C@H](C)[C@H]2N(NCc3cccc4nsnc34)C(=O)O[C@]12C` (stereo partly shown) [H3′] was more than 22 µM; that for `CC[C@H]1OC(=O)[C@H](C)[C@@H](O[C@H]2CC(C)(OC)[C@@H](O)[C@H](C)O2)[C@H](C)[C@@H](O[C@@H]2O[C@H](C)C[C@H](N(C)C)[C@H]2O)[C@](C)(OC)C[C@@H](C)C(=O)[C@H](C)[C@H]2N(NCc3c[nH]nc3-c3ccc(F)cc3)C(=O)O[C@]12C` (stereo partly shown) [D5′] was 25 µM (≈ 24.1 µg/mL).

As for `CC[C@H]1OC(=O)[C@H](C)[C@@H](O[C@H]2CC(C)(OC)[C@@H](O)[C@H](C)O2)[C@H](C)[C@@H](O[C@@H]2O[C@H](C)C[C@H](N(C)C)[C@H]2O)[C@](C)(OC)C[C@@H](C)C(=O)[C@H](C)[C@H]2N(NCC3=Cc4ccccc4OC3)C(=O)O[C@]12C` (stereo partly shown) [G6′], the MIC was 11 µM (≈ 10.3 µg/mL). On the same count and under the same terms, the value for `CC[C@H]1OC(=O)[C@H](C)[C@@H](O[C@H]2CC(C)(OC)[C@@H](O)[C@H](C)O2)[C@H](C)[C@@H](O[C@@H]2O[C@H](C)C[C@H](N(C)C)[C@H]2O)[C@](C)(OC)C[C@@H](C)C(=O)[C@H](C)[C@H]2N(NCc3ccc([N+](=O)[O-])o3)C(=O)O[C@]12C` (stereo partly shown) [A8′] was more than 9 µM. The same measure, in the same setting: the same measure for `CC[C@H]1OC(=O)[C@H](C)[C@@H](O[C@H]2CC(C)(OC)[C@@H](O)[C@H](C)O2)[C@H](C)[C@@H](O[C@@H]2O[C@H](C)C[C@H](N(C)C)[C@H]2O)[C@](C)(OC)C[C@@H](C)C(=O)[C@H](C)[C@H]2N(NCc3cnccc3NC(=O)C(C)(C)C)C(=O)O[C@]12C` (stereo partly shown) [E2′]: more than 27 µM; for `CC[C@H]1OC(=O)[C@H](C)[C@@H](O[C@H]2CC(C)(OC)[C@@H](O)[C@H](C)O2)[C@H](C)[C@@H](O[C@@H]2O[C@H](C)C[C@H](N(C)C)[C@H]2O)[C@](C)(OC)C[C@@H](C)C(=O)[C@H](C)[C@H]2N(NCc3cccn3-c3ccc(C(F)(F)F)cc3)C(=O)O[C@]12C` (stereo partly shown) [F1′]: 17.6 µM (≈ 17.8 µg/mL); for `CC[C@H]1OC(=O)[C@H](C)[C@@H](O[C@H]2CC(C)(OC)[C@@H](O)[C@H](C)O2)[C@H](C)[C@@H](O[C@@H]2O[C@H](C)C[C@H](N(C)C)[C@H]2O)[C@](C)(OC)C[C@@H](C)C(=O)[C@H](C)[C@H]2N(NC/C=C/c3cc(OC)c(O)c(OC)c3)C(=O)O[C@]12C` (stereo partly shown) [A6′]: 10.2 µM (≈ 10 µg/mL). Regarding `CCC1OC(=O)C(C)C(OC2CC(C)(OC)C(O)C(C)O2)C(C)C(OC2OC(C)CC(N(C)C)C2O)C(C)(OC)CC(C)C(=O)C(C)C2N(N=CC3=C(Cl)c4cc(F)ccc4OC3)C(=O)OC12C` (stereo not shown) [H9′], the MIC entry is on record as “?3 μM”. On the same count and under the same terms, the same measure for `CC[C@H]1OC(=O)[C@H](C)[C@@H](O[C@H]2CC(C)(OC)[C@@H](O)[C@H](C)O2)[C@H](C)[C@@H](O[C@@H]2O[C@H](C)C[C@H](N(C)C)[C@H]2O)[C@](C)(OC)C[C@@H](C)C(=O)[C@H](C)[C@H]2N(NCc3cc(Cl)cc(Br)c3O)C(=O)O[C@]12C` (stereo partly shown) [G8′]: 14 µM (≈ 14.1 µg/mL); for `CC[C@H]1OC(=O)[C@H](C)[C@@H](O[C@H]2CC(C)(OC)[C@@H](O)[C@H](C)O2)[C@H](C)[C@@H](O[C@@H]2O[C@H](C)C[C@H](N(C)C)[C@H]2O)[C@](C)(OC)C[C@@H](C)C(=O)[C@H](C)[C@H]2N(NCc3[nH]ncc3Br)C(=O)O[C@]12C` (stereo partly shown) [D1′]: 23 µM (≈ 21.8 µg/mL); for `CC[C@H]1OC(=O)[C@H](C)[C@@H](O[C@H]2CC(C)(OC)[C@@H](O)[C@H](C)O2)[C@H](C)[C@@H](O[C@@H]2O[C@H](C)C[C@H](N(C)C)[C@H]2O)[C@](C)(OC)C[C@@H](C)C(=O)[C@H](C)[C@H]2N(/N=C/c3cnc(-c4ccccc4)nc3C)C(=O)O[C@]12C` (stereo partly shown) [E6′]: 5 µM (≈ 4.84 µg/mL). In turn, `CC[C@H]1OC(=O)[C@H](C)[C@@H](O[C@H]2CC(C)(OC)[C@@H](O)[C@H](C)O2)[C@H](C)[C@@H](O[C@@H]2O[C@H](C)C[C@H](N(C)C)[C@H]2O)[C@](C)(OC)C[C@@H](C)C(=O)[C@H](C)[C@H]2N(NCc3c(C(F)(F)F)nn(C)c3Cl)C(=O)O[C@]12C` (stereo partly shown) [D3′] yielded an MIC of 20 µM (≈ 19.7 µg/mL). Still for that read-out and setting: the value for `CC[C@H]1OC(=O)[C@H](C)[C@@H](O[C@H]2CC(C)(OC)[C@@H](O)[C@H](C)O2)[C@H](C)[C@@H](O[C@@H]2O[C@H](C)C[C@H](N(C)C)[C@H]2O)[C@](C)(OC)C[C@@H](C)C(=O)[C@H](C)[C@H]2N(NCc3cnn(-c4ccc(F)cc4)c3C)C(=O)O[C@]12C` (stereo partly shown) [D7′] was 13 µM (≈ 12.7 µg/mL). Same read-out and setting: the same measure for `CC[C@H]1OC(=O)[C@H](C)[C@@H](O[C@H]2CC(C)(OC)[C@@H](O)[C@H](C)O2)[C@H](C)[C@@H](O[C@@H]2O[C@H](C)C[C@H](N(C)C)[C@H]2O)[C@](C)(OC)C[C@@H](C)C(=O)[C@H](C)[C@H]2N(NCc3c(Cl)cccc3Cl)C(=O)O[C@]12C` (stereo partly shown) [H1′]: 11 µM (≈ 10.4 µg/mL). Still for that read-out and setting: the value for `CC[C@H]1OC(=O)[C@H](C)[C@@H](O[C@H]2CC(C)(OC)[C@@H](O)[C@H](C)O2)[C@H](C)[C@@H](O[C@@H]2O[C@H](C)C[C@H](N(C)C)[C@H]2O)[C@](C)(OC)C[C@@H](C)C(=O)[C@H](C)[C@H]2N(NCc3cc4ccccc4s3)C(=O)O[C@]12C` (stereo partly shown) [G2′] was 11 µM (≈ 10.3 µg/mL). For the compound `CC[C@H]1OC(=O)[C@H](C)[C@@H](O[C@H]2CC(C)(OC)[C@@H](O)[C@H](C)O2)[C@H](C)[C@@H](O[C@@H]2O[C@H](C)C[C@H](N(C)C)[C@H]2O)[C@](C)(OC)C[C@@H](C)C(=O)[C@H](C)[C@H]2N(NCc3cncn3C)C(=O)O[C@]12C` (stereo partly shown) [B5′], the MIC is more than 27 µM. `CC[C@H]1OC(=O)[C@H](C)[C@@H](O[C@H]2CC(C)(OC)[C@@H](O)[C@H](C)O2)[C@H](C)[C@@H](O[C@@H]2O[C@H](C)C[C@H](N(C)C)[C@H]2O)[C@](C)(OC)C[C@@H](C)C(=O)[C@H](C)[C@H]2N(NCc3ccnc4ccccc34)C(=O)O[C@]12C` (stereo partly shown) [D11′]: the MIC turned out to be 16 µM (≈ 14.9 µg/mL). In turn, `CC[C@H]1OC(=O)[C@H](C)[C@@H](O[C@H]2CC(C)(OC)[C@@H](O)[C@H](C)O2)[C@H](C)[C@@H](O[C@@H]2O[C@H](C)C[C@H](N(C)C)[C@H]2O)[C@](C)(OC)C[C@@H](C)C(=O)[C@H](C)[C@H]2N(NCc3c(C)noc3C)C(=O)O[C@]12C` (stereo partly shown) [C6′] returned an MIC of more than 17 µM. `CC[C@H]1OC(=O)[C@H](C)[C@@H](O[C@H]2CC(C)(OC)[C@@H](O)[C@H](C)O2)[C@H](C)[C@@H](O[C@@H]2O[C@H](C)C[C@H](N(C)C)[C@H]2O)[C@](C)(OC)C[C@@H](C)C(=O)[C@H](C)[C@H]2N(NC/C=C/c3ccccc3)C(=O)O[C@]12C` (stereo partly shown) [A4′] returned an MIC of 7 µM (≈ 6.33 µg/mL).

In turn, `CCOC(=O)c1cc(-c2ccc(Cl)cc2)oc1CNN1C(=O)O[C@]2(C)[C@@H](CC)OC(=O)[C@H](C)[C@@H](O[C@H]3CC(C)(OC)[C@@H](O)[C@H](C)O3)[C@H](C)[C@@H](O[C@@H]3O[C@H](C)C[C@H](N(C)C)[C@H]3O)[C@](C)(OC)C[C@@H](C)C(=O)[C@H](C)[C@@H]12` (stereo partly shown) [B1′] displayed an MIC of more than 18 µM. Still for that read-out and setting: the same measure for `CC[C@H]1OC(=O)[C@H](C)[C@@H](O[C@H]2CC(C)(OC)[C@@H](O)[C@H](C)O2)[C@H](C)[C@@H](O[C@@H]2O[C@H](C)C[C@H](N(C)C)[C@H]2O)[C@](C)(OC)C[C@@H](C)C(=O)[C@H](C)[C@H]2N(NCc3cn(S(=O)(=O)c4ccc(C)cc4)c4ccccc34)C(=O)O[C@]12C` (stereo partly shown) [C4′]: 11 µM (≈ 11.8 µg/mL); for `CC[C@H]1OC(=O)[C@H](C)[C@@H](O[C@H]2CC(C)(OC)[C@@H](O)[C@H](C)O2)[C@H](C)[C@@H](O[C@@H]2O[C@H](C)C[C@H](N(C)C)[C@H]2O)[C@](C)(OC)C[C@@H](C)C(=O)[C@H](C)[C@H]2N(NCc3c(C)[nH]c4ccc([N+](=O)[O-])cc34)C(=O)O[C@]12C` (stereo partly shown) [B11′]: more than 22 µM; for `CC[C@H]1OC(=O)[C@H](C)[C@@H](O[C@H]2CC(C)(OC)[C@@H](O)[C@H](C)O2)[C@H](C)[C@@H](O[C@@H]2O[C@H](C)C[C@H](N(C)C)[C@H]2O)[C@](C)(OC)C[C@@H](C)C(=O)[C@H](C)[C@H]2N(NCC3CSN=N3)C(=O)O[C@]12C` (stereo partly shown) [G10′]: more than 16 µM. Still for that read-out and setting: the value for `CC[C@H]1OC(=O)[C@H](C)[C@@H](O[C@H]2CC(C)(OC)[C@@H](O)[C@H](C)O2)[C@H](C)[C@@H](O[C@@H]2O[C@H](C)C[C@H](N(C)C)[C@H]2O)[C@](C)(OC)C[C@@H](C)C(=O)[C@H](C)[C@H]2N(NCc3c(Sc4ccc(Cl)cc4)nc4sccn34)C(=O)O[C@]12C` (stereo partly shown) [H11′] was 35.4 µM (≈ 37.8 µg/mL); that for `CC[C@H]1OC(=O)[C@H](C)[C@@H](O[C@H]2CC(C)(OC)[C@@H](O)[C@H](C)O2)[C@H](C)[C@@H](O[C@@H]2O[C@H](C)C[C@H](N(C)C)[C@H]2O)[C@](C)(OC)C[C@@H](C)C(=O)[C@H](C)[C@H]2N(NCc3cccn3CCC#N)C(=O)O[C@]12C` (stereo partly shown) [E10′] was 20 µM (≈ 18.4 µg/mL); that for `CC[C@H]1OC(=O)[C@H](C)[C@@H](O[C@H]2CC(C)(OC)[C@@H](O)[C@H](C)O2)[C@H](C)[C@@H](O[C@@H]2O[C@H](C)C[C@H](N(C)C)[C@H]2O)[C@](C)(OC)C[C@@H](C)C(=O)[C@H](C)[C@H]2N(NCc3cn(Cc4ccccc4)c4ccccc34)C(=O)O[C@]12C` (stereo partly shown) [C2′] was 7 µM (≈ 7.05 µg/mL). Still for that read-out and setting: the same measure for `CC[C@H]1OC(=O)[C@H](C)[C@@H](O[C@H]2CC(C)(OC)[C@@H](O)[C@H](C)O2)[C@H](C)[C@@H](O[C@@H]2O[C@H](C)C[C@H](N(C)C)[C@H]2O)[C@](C)(OC)C[C@@H](C)C(=O)[C@H](C)[C@H]2N(/N=C/c3c(C)noc3-c3ccccc3)C(=O)O[C@]12C` (stereo partly shown) [C12′]: 9 µM (≈ 8.61 µg/mL).

Staying with this test, now noted: in vitro.
Regarding `CC[C@H]1OC(=O)[C@H](C)C(=O)[C@H](C)[C@@H](O[C@@H]2O[C@H](C)C[C@H](N(C)C)[C@H]2O)[C@](C)(OC)C[C@@H](C)C(=O)[C@H](C)[C@H]2N(CCCCn3cnc(-c4cccnc4)c3)C(=O)O[C@]12C` [Telithromycin, reference compound], the “MIC / activity vs. M. tuberculosis in words” value is reported as “even less active than clarithromycin”.

In general, MIC refers to the lowest concentration found to suppress growth.

The values above are taken from patent publication US20050014706A1, “Method of treating tuberculosis” (priority 2003, published 2005).
